Source: patent publication US12338268B2, “Compositions and methods for treating protein aggregation-associated diseases” (The Board of Trustees of the Leland Stanford Junior …, priority 2019, dated 2025)

Legend:
[1] = test system: yeast model systems and tissue culture cells; test: Neurotoxicity associated with Huntington's Disease in yeast model systems and tissue culture cells; type: cell-based; conditions: elevated levels of the subunit
[2] = target: T1, mutant Huntingtin exon 1 (mHttQ51) (Homo sapiens, UniProt P42858, INS38QQQQQQQQQQQQQQQQQQQQQQQQQQQQQQQ); test: In vitro filter trap aggregation assay of mutant Huntingtin exon 1; type: biochemical; conditions: 5× or 10× molar excess of peptides
T1 construct: mutant Huntingtin exon 1 containing a pathogenic stretch of 51 glutamines (mHttQ51); GST (N, cleaved yes); made in house; host or cells: E. coli Rosetta 2(DE3) pLysS
T1 sequence (P42858 with tags, fused parts or gaps with the stated changes limits assumed): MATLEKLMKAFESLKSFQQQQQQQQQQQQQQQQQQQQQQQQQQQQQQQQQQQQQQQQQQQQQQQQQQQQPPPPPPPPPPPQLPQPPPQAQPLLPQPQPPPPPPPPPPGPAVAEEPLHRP
Experimental: Mutant Huntingtin and PolyQ51 aggregation reactions were performed at concentration 3 μM of mHttQ51, 0.044 Units/μl acTEV protease (Invitrogen, Carlsbad, CA, USA), and respective concentrations of Ovalbumin (Sigma) or purified NAC chaperone variants. Aggregation was conducted in TEV reaction buffer (Invitrogen) and incubated at 30° C. AtxQ78 was buffer exchanged into TEV reaction buffer using 7K MWCO Zeba Spin Desalting Columns (Thermo Fisher) to initiate aggregation. AtxQ78 aggregation reactions were performed at 30 μM of Ataxin-3 in reaction buffer (20 mM sodium phosphate pH 7.5, 25 mM NaCl, 6 mM MgCl2, 2 mM DTT, 5% (v/v) glycerol) and incubated at 37° C. Samples at varied time-points were then taken and combined in a 1:1 ratio with a 4% (w/v) SDS, 100 mM DTT solution, boiled for 5 min at 95° C., and stored at −20° C. Samples were then filtered through a 0.22 μm cellulose acetate membrane (Whatman) and washed with 0.1% (w/v) SDS. Membrane was probed using an S-tag antibody (Abcam) for mHttQ51 and PolyQ51, and with a His-tag antibody (Abcam) for AtxQ78.

Substance | neurotoxicity associated with Huntington's Disease [1] | mHttQ51 aggregation [2]
full length CCT1 subunit: single subunit of the TRiC/CCT chaperonin complex | suppress neurotoxicity | 
C. elegans N-βNAC peptide: synthetic peptide corresponding to the N-terminal region of C. elegans βNAC (SEQ ID NO:1) (MDSKAIAERIKKLQAQQEHVRIGGKGTPRRKKKVIHKTAA) |  | sufficient to suppress aggregation of mHttQ51
